# Laboratory results as given in patent publication US20260250318A1, “COMPOSITIONS AND METHODS FOR CROSSING THE BLOOD BRAIN BARRIER” (VOYAGER THERAPEUTICS, INC., priority 2022, published 2026).
# System: brain
# Assay: Maturation of TTM-001 capsid, NGS enrichment in brain of CD-1 Outbred mice
# Type: in vivo
# Conditions: NGS fold-enrichment of TTM-001 matured AAV capsid variants in the brain of CD-1 Outbred mice; intravenous 1.0×10^12 VG/dose; 14 days in life; RNA; relative to non-matured TTM-001 control
# Outline: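 Pooled matured TTM-001 or TTM-002 capsid libraries (loop IV region randomized by triple-codon or low-frequency point mutagenesis) dosed IV via tail vein at 1.0×10^12 VG/dose to three female CD-1 mice. Brain RNA taken after 14 days; RT-PCR and NGS gave fold enrichment versus parent TTM-001 or TTM-002 control.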
row,Sequence,Fold enrichment over TTM-001 [fold]
1,KTINGSGSPHSKAWILQT,2.004
2,KTINGSGSPHSKAWLIQT,2.499
3,KTINGSGSPHSKAWLLQT,2.240
4,KTINGSGSPHSKAWLMQT,2.015
5,KTINGSGSPHSKAWYPQT,2.406
6,KTINGSGSPHSKAYLRQT,3.356
7,KTINGSGSPHSKCLLQQT,3.374
8,KTINGSGSPHSKCLNQQT,2.594
9,KTINGSGSPHSKCLSQQT,2.052
10,KTINGSGSPHSKCLTQQT,2.644
11,KTINGSGSPHSKCSNQQT,2.020
12,KTINGSGSPHSKCTLQQT,2.808
13,KTINGSGSPHSKEETQQT,2.223
14,KTINGSGSPHSKFKLQQT,2.244
15,KTINGSGSPHSKFLFQQT,3.173
16,KTINGSGSPHSKFSCQQT,2.348
17,KTINGSGSPHSKGCLQQT,2.320
18,KTINGSGSPHSKGGRQQT,2.164
19,KTINGSGSPHSKGIRQQT,2.497
20,KTINGSGSPHSKGRAQQT,2.607
21,KTINGSGSPHSKGRIQQT,2.061
22,KTINGSGSPHSKGRSQQT,2.080
23,KTINGSGSPHSKGVRQQT,2.115
24,KTINGSGSPHSKHLRQQT,3.438

row,Sequence,Fold enrichment over TTM-001 [fold]
1,KTINGSGSPHSKIGRQQT,2.739
2,KTINGSGSPHSKILWQQT,2.838
3,KTINGSGSPHSKIRLQQT,2.348
4,KTINGSGSPHSKIRPQQT,2.080
5,KTINGSGSPHSKKGGQQT,2.009
6,KTINGSGSPHSKKMSQQT,2.235
7,KTINGSGSPHSKKVSQQT,2.088
8,KTINGSGSPHSKLARQQT,3.054
9,KTINGSGSPHSKLCLQQT,2.562
10,KTINGSGSPHSKLCSQQT,2.989
11,KTINGSGSPHSKLCVQQT,2.659
12,KTINGSGSPHSKLFRQQT,3.806
13,KTINGSGSPHSKLIRQQT,3.968
14,KTINGSGSPHSKLLRQQT,2.981
15,KTINGSGSPHSKLMRQQT,2.056
16,KTINGSGSPHSKLNKQQT,3.181
17,KTINGSGSPHSKLPRQQT,2.562
18,KTINGSGSPHSKLRLQQT,2.065
19,KTINGSGSPHSKLRMQQT,2.106
20,KTINGSGSPHSKLRNQQT,3.112
21,KTINGSGSPHSKLRPQQT,2.060
22,KTINGSGSPHSKLRRQQT,6.231
23,KTINGSGSPHSKLRSQQT,2.309
24,KTINGSGSPHSKLSKQQT,2.482

row,Sequence,Fold enrichment over TTM-001 [fold]
1,KTINGSGSPHSKLSRQQT,2.380
2,KTINGSGSPHSKLSWQQT,2.322
3,KTINGSGSPHSKLVRQQT,2.801
4,KTINGSGSPHSKLWLQQT,3.199
5,KTINGSGSPHSKLWSQQT,2.190
6,KTINGSGSPHSKLWTQQT,2.140
7,KTINGSGSPHSKLYMQQT,2.015
8,KTINGSGSPHSKMRAQQT,3.382
9,KTINGSGSPHSKMRPQQT,2.652
10,KTINGSGSPHSKNLRQQT,2.022
11,KTINGSGSPHSKNTRQQT,2.047
12,KTINGSGSPHSKNVRQQT,2.123
13,KTINGSGSPHSKPARQQT,2.538
14,KTINGSGSPHSKPLRQQT,2.844
15,KTINGSGSPHSKPRGQQT,2.147
16,KTINGSGSPHSKPRLQQT,3.337
17,KTINGSGSPHSKPRPQQT,2.352
18,KTINGSGSPHSKPRSQQT,2.235
19,KTINGSGSPHSKPRVQQT,2.441
20,KTINGSGSPHSKPSRQQT,2.438
21,KTINGSGSPHSKPTRQQT,3.201
22,KTINGSGSPHSKPVRQQT,2.529
23,KTINGSGSPHSKPWLQQT,2.138
24,KTINGSGSPHSKQRSQQT,2.395

row,Sequence,Fold enrichment over TTM-001 [fold]
1,KTINGSGSPHSKQRVQQT,2.117
2,KTINGSGSPHSKQSRQQT,2.156
3,KTINGSGSPHSKQTRQQT,2.650
4,KTINGSGSPHSKRAAQQT,3.838
5,KTINGSGSPHSKRALQQT,2.114
6,KTINGSGSPHSKRAMQQT,3.801
7,KTINGSGSPHSKRASQQT,2.173
8,KTINGSGSPHSKRATQQT,2.283
9,KTINGSGSPHSKRFLQQT,3.359
10,KTINGSGSPHSKRGLQQT,2.402
11,KTINGSGSPHSKRGTQQT,2.022
12,KTINGSGSPHSKRILQQT,2.801
13,KTINGSGSPHSKRINQQT,2.173
14,KTINGSGSPHSKRIVQQT (KTINGSGSPHSKRLVQQT),2.151
15,KTINGSGSPHSKRLAQQT,2.397
16,KTINGSGSPHSKRLLQQT,2.659
17,KTINGSGSPHSKRLMQQT,2.345
18,KTINGSGSPHSKRLPQQT,2.279
19,KTINGSGSPHSKRLRQQT,5.034
20,KTINGSGSPHSKRLTQQT,2.363
21,KTINGSGSPHSKRLYQQT,2.721
22,KTINGSGSPHSKRMSQQT,2.931
23,KTINGSGSPHSKRNGQQT,3.350
24,KTINGSGSPHSKRNLQQT,3.210

row,Sequence,Fold enrichment over TTM-001 [fold]
1,KTINGSGSPHSKRNVQQT,2.404
2,KTINGSGSPHSKRPFQQT,2.076
3,KTINGSGSPHSKRRLQQT,4.451
4,KTINGSGSPHSKRRNQQT,2.877
5,KTINGSGSPHSKRSFQQT,2.197
6,KTINGSGSPHSKRSIQQT,2.063
7,KTINGSGSPHSKRSLQQT,2.270
8,KTINGSGSPHSKRSMQQT,3.561
9,KTINGSGSPHSKRSNQQT,2.886
10,KTINGSGSPHSKRSWQQT,3.838
11,KTINGSGSPHSKRTAQQT,2.331
12,KTINGSGSPHSKRTFQQT,3.879
13,KTINGSGSPHSKRTLQQT,2.583
14,KTINGSGSPHSKRTPQQT,3.169
15,KTINGSGSPHSKRTSQQT,2.857
16,KTINGSGSPHSKRTYQQT,2.870
17,KTINGSGSPHSKRVGQQT,2.190
18,KTINGSGSPHSKRVLQQT,2.035
19,KTINGSGSPHSKRVPQQT,3.048
20,KTINGSGSPHSKRVSQQT,2.196
21,KTINGSGSPHSKSARQQT,2.067
22,KTINGSGSPHSKSCAQQT,2.348
23,KTINGSGSPHSKSERQQT,2.263
24,KTINGSGSPHSKSFRQQT,3.426

row,Sequence,Fold enrichment over TTM-001 [fold]
1,KTINGSGSPHSKSHRQQT,2.145
2,KTINGSGSPHSKSIRQQT,2.728
3,KTINGSGSPHSKSLKQQT,2.013
4,KTINGSGSPHSKSNKQQT,2.006
5,KTINGSGSPHSKSRHQQT,2.685
6,KTINGSGSPHSKSRRQQT,4.175
7,KTINGSGSPHSKSRWQQT,3.698
8,KTINGSGSPHSKSVRQQT,2.259
9,KTINGSGSPHSKTCLQQT,3.717
10,KTINGSGSPHSKTCSQQT,2.430
11,KTINGSGSPHSKTGRQQT,2.259
12,KTINGSGSPHSKTIRQQT,2.453
13,KTINGSGSPHSKTLRQQT,3.788
14,KTINGSGSPHSKTNRQQT,2.169
15,KTINGSGSPHSKTRAQQT,2.223
16,KTINGSGSPHSKTRLQQT,2.145
17,KTINGSGSPHSKTRMQQT,2.011
18,KTINGSGSPHSKTSRQQT,2.132
19,KTINGSGSPHSKVARQQT,2.136
20,KTINGSGSPHSKVGRQQT,3.255
21,KTINGSGSPHSKVIRQQT,2.760
